The source of these data is patent publication US4367232A, “Piperidine derivatives” (Fordonal, S.A., priority 1976, dated 1983).

Format in all cases: in vivo
In test [1] the test system is apomorphineinduced gnawing behaviour. In words: Inhibition of apomorphine-induced gnawing behaviour in the rat. The settings on record: oral, approximate ED50, read-out: Anti-apomorphine: approximate oral ED50 value for inhibition of apomorphineinduced gnawing behaviour. The text has this: (§1) Standard pharmaceutical tests have been run with mice and rats using compounds of this invention. The instant compounds have been compared with Clebopride hydrochloride, i.e., N-(1-benzylpiperid-4-yl)-2-methoxy-4-amino-5-chlorobenzamide hydrochloride, which is disclosed in co-pending U.S. patent application Ser. No. 558,908 filed Mar. 17, 1975, incorporated herein by reference.
^(b) Approximate oral ED50 value for inhibition of
apomorphineinduced gnawing behaviour in the rat.

In another test the test system is food intake (spaghetti). Kind of test: Anorexia: inhibition of food intake (spaghetti) in screening test in the mouse. As to conditions: 10 mg kg^-1 p.os. As for the experimental part: as §1
^(c) Percentage inhibition of food intake (spaghetti) in screening
test at 10 mg kg^-1 p.os. in the mouse.

A further test relates to stomach emptying. In words: Stomach emptying in the rat. The settings on record: 0.3, 1.0 or 3.0 mg kg^-1 i.p.
Source text: as §1
^(d) Active at 0.3 (+++), 1.0 (++) or 3.0 (+) mg kg^-1 i.p. in
causing significant stomach emptying in the rat.

Bounds are passed on as bounds.

Turning to `COc1cc(N)c(Cl)cc1C(=O)NC1CCN(Cc2ccccc2)CC1.Cl` [Clebopride hydrochloride, N-(1-benzylpiperid-4-yl)-2-methoxy-4-amino-5-chlorobenzamide hydrochloride, reference compound], in test [1], the ED50 turned out to be 2.5 mg/kg. In addition, the “Anorexia: percentage inhibition of food intake (spaghetti)” value (shortened to “Anorexia: percentage inhibition”) in the test on food intake (spaghetti) amounted to 84%.

On to `COc1cc(N)c(Cl)cc1C(=O)NC1CC(C)N(Cc2ccccc2)C(C)C1` (stereo not shown) [R5'=2-Me; R6'=6-Me; R7'=H, N-(1-benzyl-2,6-dimethylpiperid-4-yl)-2-methoxy-4-amino-5-chlorobenzamide], for which, in test [1], the ED50 is ~100 mg/kg. The “Anorexia: percentage inhibition” value with food intake (spaghetti) worked out at 89%.

As for `CCN(C(=O)c1cc(Cl)c(N)cc1OC)C1CCN(Cc2ccccc2)CC1.Cl` [R3'=H; R7'=C2H5, N-ethyl-N-(1-benzylpiperid-4-yl)-2-methoxy-4-amino-5-chlorobenzamide hydrochloride], the ED50 in test [1] is ~300 mg/kg. Further, the “Anorexia: percentage inhibition” value in the test with food intake (spaghetti) was 0%.

As to `COc1cc(N)c(Cl)cc1C(=O)NC1CCN(Cc2ccccc2)CC1C` (stereo not shown) [R5'=3-Me; R7'=H, N-(1-benzyl-3-methylpiperid-4-yl)-2-methoxy-4-amino-5-chlorobenzamide], the median effective dose (ED50) in test [1] was 58 mg/kg. Moreover, the “Anorexia: percentage inhibition” value in the test on food intake (spaghetti) worked out at 34%.

With `COc1cc(N)c(Cl)cc1C(=O)N(C)C1CCN(Cc2ccccc2)CC1.Cl` [R3'=H; R7'=CH3, N-methyl-N-(1-benzylpiperid-4-yl)-2-methoxy-4-amino-5-chlorobenzamide hydrochloride], the ED50 in test [1] is > 300 mg/kg. Also, the “Anorexia: percentage inhibition” value in the test on food intake (spaghetti) worked out at 0%.

`COc1cc(N)c(Cl)cc1C(=O)N(C)C1CCN(C(C)c2ccccc2)CC1` (stereo not shown) [R3'=CH3; R7'=CH3, N-methyl-N-[1-(1-phenylethyl)piperid-4-yl]-2-methoxy-4-amino-5-chlorobenzamide]: the ED50 in test [1] was > 300 mg/kg. In the test on food intake (spaghetti), the “Anorexia: percentage inhibition” value amounted to 0%. In the test on stomach emptying, this compound showed a Stomach emptying of 0.
